This note sets out measurements from patent US10961247B2, “Pyrazolopyrimidine derivatives as kinase inhibitor” (Daewoong Pharmaceutical Co., Ltd., priority 2016, dated 2021).

By inhibition is commonly meant the relative decrease from the control value, in per cent. The IC50 is the concentration that gives 50% inhibition.

The target in test [1] is Recombinant purified human BTK (Homo sapiens (Human), UniProt Q06187). In words: BTK enzyme inhibitory activity, ADP Glo kinase assay (Promega V9071). In kind it is biochemical. Particulars: for inhibition at 0.1 µM: 100 nM compound; for IC50: ATP 10 uM, 1 hour 30° C. As to the method: (§1) JAK3 and BTK kinase inhibitory activities were measured for the compounds prepared in the above Examples through in vitro analysis on the ADP Glow (Glo) platform.
Sequence of Recombinant purified human BTK (Q06187 whole entry): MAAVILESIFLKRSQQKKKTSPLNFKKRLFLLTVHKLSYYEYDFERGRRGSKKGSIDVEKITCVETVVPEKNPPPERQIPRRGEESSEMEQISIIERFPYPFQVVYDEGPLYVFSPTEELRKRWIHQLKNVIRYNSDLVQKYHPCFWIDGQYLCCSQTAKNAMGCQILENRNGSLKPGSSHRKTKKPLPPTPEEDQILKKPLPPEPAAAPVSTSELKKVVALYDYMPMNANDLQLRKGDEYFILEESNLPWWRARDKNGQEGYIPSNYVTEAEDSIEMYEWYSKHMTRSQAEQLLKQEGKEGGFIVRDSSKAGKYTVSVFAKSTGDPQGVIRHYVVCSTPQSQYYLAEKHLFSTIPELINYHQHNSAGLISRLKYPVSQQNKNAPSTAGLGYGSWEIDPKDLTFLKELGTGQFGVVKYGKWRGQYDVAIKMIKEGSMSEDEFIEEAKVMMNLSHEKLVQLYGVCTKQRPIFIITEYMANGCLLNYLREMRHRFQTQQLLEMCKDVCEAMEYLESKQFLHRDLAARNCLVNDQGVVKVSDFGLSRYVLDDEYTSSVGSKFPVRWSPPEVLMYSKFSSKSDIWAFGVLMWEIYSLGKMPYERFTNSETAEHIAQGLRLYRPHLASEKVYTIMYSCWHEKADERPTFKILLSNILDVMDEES
(§2) Specifically, the inhibitory activities of JAK3 and BTK kinase were measured using a JAK3 kinase assay kit (Promega, V9441) and a BTK kinase assay kit (Promega, V9071) which were purchased from Promega. Recombinant purified human JAK3 and BTK were diluted with 1×kinase reaction buffer (JAK3: 40 mM Tris-Cl, pH 7.5, 20 mM MgCl2, 0.1 mg/mL BSA and 50 uM DTT/BTK: 40 mM Tris-Cl, pH 7.5, 20 mM MgCl2, 0.1 mg/mL BSA, 2 mM MnCl2 and 50 uM DTT) and added to a 96 well plate (JAK3: final concentration of 4 ng per reaction/BTK: final concentration of 8 ng per reaction). The compounds were treated so as to be finally a 1% DMSO aqueous solution, and a substrate cocktail containing ATP (JAK3: final concentration of 5 uM/BTK: final concentration of 10 uM) and 0.2 μg/μL of Poly(Glu4, Tyr1) peptide (JAK3 and BTK final concentration) in the total […] reactants was added to a 96-well plate to initiate enzymatic reaction. After incubation (30° C.) for 1 hour, equivalent volume ([…] per reaction) of ADP Glo was added and incubated (30° C.) for 40 minutes at room temperature. Then, a kinase detection reagent ([…] per reaction) was added and incubated (30° C.) for 30 minutes at room temperature. The kinase activity was measured by chemiluminescence according to the instructions of ADP Glo kinase assay kit, and the inhibitory activity of the compounds according to the present invention was calculated. For the analysis of the results of each compound, Microsoft Excel was used, and IC50 values were calculated by SigmaPlot software.
A general note: ADP-Glo turns the ADP formed in a reaction into a luminescent signal.

The target in test [2] is Recombinant purified human JAK3 (Homo sapiens (Human), UniProt P52333). The test can be described thus: JAK3 enzyme inhibitory activity, ADP Glo kinase assay (Promega V9441). The following applies: ATP 5 uM, 1 hour 30° C. In kind it is biochemical. How it is done: as §1, §2
Sequence of Recombinant purified human JAK3 (P52333 whole entry): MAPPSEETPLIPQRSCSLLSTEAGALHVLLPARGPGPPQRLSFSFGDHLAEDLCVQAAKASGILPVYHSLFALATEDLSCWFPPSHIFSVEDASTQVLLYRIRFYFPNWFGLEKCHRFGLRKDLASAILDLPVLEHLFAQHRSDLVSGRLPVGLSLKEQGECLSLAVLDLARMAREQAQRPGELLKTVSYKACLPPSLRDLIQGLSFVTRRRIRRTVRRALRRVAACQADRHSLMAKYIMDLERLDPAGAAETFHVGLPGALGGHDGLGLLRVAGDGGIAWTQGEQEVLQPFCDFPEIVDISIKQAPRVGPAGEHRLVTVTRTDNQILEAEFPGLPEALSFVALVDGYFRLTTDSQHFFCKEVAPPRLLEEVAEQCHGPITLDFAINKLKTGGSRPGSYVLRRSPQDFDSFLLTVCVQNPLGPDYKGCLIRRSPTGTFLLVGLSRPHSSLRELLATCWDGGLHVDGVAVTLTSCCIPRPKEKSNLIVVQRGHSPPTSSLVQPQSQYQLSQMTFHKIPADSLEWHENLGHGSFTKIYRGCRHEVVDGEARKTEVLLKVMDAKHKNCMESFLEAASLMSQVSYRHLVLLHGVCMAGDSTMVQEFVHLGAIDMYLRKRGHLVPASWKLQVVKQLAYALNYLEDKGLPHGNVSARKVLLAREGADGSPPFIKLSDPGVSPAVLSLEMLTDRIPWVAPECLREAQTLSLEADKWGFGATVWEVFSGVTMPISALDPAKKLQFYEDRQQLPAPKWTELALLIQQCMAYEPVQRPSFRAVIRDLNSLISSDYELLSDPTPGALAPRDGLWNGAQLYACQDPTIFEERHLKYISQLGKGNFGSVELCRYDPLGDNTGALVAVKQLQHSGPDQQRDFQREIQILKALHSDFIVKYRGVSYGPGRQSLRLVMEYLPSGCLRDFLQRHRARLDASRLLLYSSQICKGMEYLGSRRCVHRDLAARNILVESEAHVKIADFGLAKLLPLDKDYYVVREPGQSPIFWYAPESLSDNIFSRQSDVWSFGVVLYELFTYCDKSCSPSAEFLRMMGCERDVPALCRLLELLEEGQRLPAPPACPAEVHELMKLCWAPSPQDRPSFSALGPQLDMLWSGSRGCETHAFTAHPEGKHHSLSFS

On to `C=CC(=O)NC1CCCC(Nc2nc(Nc3ccc(N4CCN(C)CC4)cc3)nc3[nH]ccc23)C1` (stereo not shown) [Example 29, N-(3-(2-(4-(4-methylpiperazin-1-yl)phenylamino)-7H-pyrrolo[2,3-d]pyrimidin-4-ylamino)cyclohexyl)acrylamide], for which, in test [1], the inhibition at 0.1 µM is 47.1%.
On the same count and under the same terms, for `C[C@@H]1CCN(C(=O)CC#N)C[C@@H]1N(C)c1nc(Nc2ccc(N3CCN(C)CC3)cc2)nc2[nH]ccc12` [Example 28, 3-((3R,4R)-4-methyl-3-(methyl(2-(4-(4-methylpiperazin-1-yl)phenylamino)-7H-pyrrolo[2,3-d]pyrimidin-4-yl)amino)piperidin-1-yl)-3-oxopropanenitrile] the value was 3.3%.
Consider `CC#CC(=O)N1CCC[C@@H](Nc2nc(Nc3ccc(N4CCN(C)CC4)cc3)nc3[nH]cc(Cl)c23)C1` [Example 143, (R)-1-(3-((5-chloro-2-((4-(4-methylpiperazin-1-yl)phenyl)amino)-7H-pyrrolo[2,3-d]pyrimidin-4-yl)amino)piperidin-1-yl)but-2-yn-1-one], for which the IC50 in test [1] came out at 165 nM; in test [2] it was 19.3 nM.
The corresponding values for `C=CC(=O)N1CCC[C@@H](Sc2nc(Nc3cnn(CC)c3)nc3[nH]cc(Cl)c23)C1` [Example 109, (R)-1-(3-((5-chloro-2-((1-ethyl-1H-pyrazol-4-yl)amino)-7H-pyrrolo[2,3-d]pyrimidin-4-yl)thio)piperidin-1-yl)prop-2-en-1-one] are 2 nM and 0.3 nM.
As for `C=CC(=O)N1CCC[C@@H](Nc2nc(Nc3cnoc3)nc3[nH]nc(SC)c23)C1` [Example 130, (R)-1-(3-((6-(isoxazol-4-ylamino)-3-(methylthio)-1H-pyrazolo[3,4-d]pyrimidin-4-yl)amino)piperidin-1-yl)prop-2-en-1-one], the values for the IC50 in test [1] and in test [2] were 1.1 nM and 9 nM, respectively.
With `C=CC(=O)N1CC[C@@H](C)[C@@H](N(C)c2nc(Nc3ccc(N4CCN(C)CC4)cc3)nc3[nH]ccc23)C1` [Example 27, 1-((3R,4R)-4-methyl-3-(methyl(2-(4-(4-methylpiperazin-1-yl)phenylamino)-7H-pyrrolo[2,3-d]pyrimidin-4-yl)amino)piperidin-1-yl)prop-2-en-1-one], the inhibition at 0.1 µM in test [1] stood at 48%.
Consider `C=CC(=O)N1CCC[C@@H](Nc2nc(Nc3cnn(CC)c3)nc3[nH]nc(Cl)c23)C1` [Example 46, (R)-1-(3-(3-chloro-6-(1-ethyl-1H-pyrazol-4-ylamino)-1H-pyrazolo[3,4-d]pyrimidin-4-ylamino)piperidin-1-yl)prop-2-en-1-one], for which the IC50 in test [1] is 2 nM; in test [2], 0.6 nM.
`C=CC(=O)N1CC[C@@H](C)[C@@H](Nc2nc(Nc3cnn(CC)c3)nc3[nH]ccc23)C1` [Example 107, 1-((3R,4R)-3-((2-((1-ethyl-1H-pyrazol-4-yl)amino)-7H-pyrrolo[2,3-d]pyrimidin-4-yl)amino)-4-methylpiperidin-1-yl)prop-2-en-1-one]: the IC50 in test [1] came to 7.8 nM; in test [2] it was 3.7 nM.
